Results: patent publication US20250215012A1, “IKZF2 DEGRADERS AND USES THEREOF” (REGENTS OF THE UNIVERSITY OF MICHIGAN, priority 2022, published 2025)

Target: IKZF2 (Homo sapiens (Human), UniProt Q96SW2+Q9UKS7)
Assay: IKZF2 HiBiT Assay (Jurkat-IKZF2-HiBiT cell line)
Type: cell-based
Details: Jurkat-IKZF2-HiBiT cells, 24 hours; for DC50: read-out: HiBit assay degradation analysis DC50; for Dmax: read-out: HiBit assay degradation analysis Dmax
Method: Degradation of IKZF2 protein is determined by IKZF2 HiBiT assay using the Jurkat-IKZF2-HiBiT (Promega) cell line. Briefly, cells are seeded in culture medium. Compounds are serially diluted in culture medium, and certain volume of the diluted compounds is added to the appropriate well of the plate. After the addition of compounds, the cells are incubated. At the end of treatment, Nano-Glo HiBiT Lytic Detection Reagent (Promega) is added to each well, and then the plates are incubated at room temperature for a certain time period. The luminescent signal is measured using a CALRIOstar plate reader (BMG Labtech). The readings are normalized to the DMSO-treated cells and the IC50 is calculated by nonlinear regression (four parameters sigmoid fitted with variable slope, least squares fit, and no constraint) analysis using the GraphPad Prism 8 software.
Degradation of IKZF2 protein was determined by IKZF2 HiBiT assay using the Jurkat-IKZF2-HiBiT (Promega) cell line. […] Compounds were serially diluted in culture medium, and 20 μl of the diluted compounds were added to the appropriate wells of the plate. After the addition of compounds, the cells were incubated at 37° C. in an atmosphere of 5% CO2 for 24 hours. At the end of treatment, 40 ul of Nano-Glo HiBiT Lytic Detection Reagent (Promega) was added to each well, and then the plates were incubated at room temperature for 10-20 minutes. The luminescent signal was measured using a CALRIOstar plate reader (BMG Labtech). The readings were normalized to the DMSO-treated cells and the IC50 was calculated by nonlinear regression (four parameters sigmoid fitted with variable slope, least squares fit, and no constraint) analysis using the GraphPad Prism 8 software.

Chain of IKZF2 (Q9UKS7 whole entry): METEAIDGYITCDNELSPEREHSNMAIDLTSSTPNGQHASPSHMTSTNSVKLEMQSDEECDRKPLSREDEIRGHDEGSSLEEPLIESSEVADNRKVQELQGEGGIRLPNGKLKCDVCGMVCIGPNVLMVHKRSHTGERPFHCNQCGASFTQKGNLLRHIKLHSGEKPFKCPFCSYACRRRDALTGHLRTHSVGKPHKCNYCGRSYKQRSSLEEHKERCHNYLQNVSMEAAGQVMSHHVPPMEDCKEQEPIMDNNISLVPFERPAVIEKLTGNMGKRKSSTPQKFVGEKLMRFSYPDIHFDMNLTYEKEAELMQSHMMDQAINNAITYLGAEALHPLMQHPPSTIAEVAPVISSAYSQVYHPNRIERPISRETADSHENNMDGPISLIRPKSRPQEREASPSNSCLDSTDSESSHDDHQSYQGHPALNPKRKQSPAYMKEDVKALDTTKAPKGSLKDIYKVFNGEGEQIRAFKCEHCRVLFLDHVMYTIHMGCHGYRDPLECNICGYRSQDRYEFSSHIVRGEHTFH
Chain of IKZF2 (Q96SW2 whole entry): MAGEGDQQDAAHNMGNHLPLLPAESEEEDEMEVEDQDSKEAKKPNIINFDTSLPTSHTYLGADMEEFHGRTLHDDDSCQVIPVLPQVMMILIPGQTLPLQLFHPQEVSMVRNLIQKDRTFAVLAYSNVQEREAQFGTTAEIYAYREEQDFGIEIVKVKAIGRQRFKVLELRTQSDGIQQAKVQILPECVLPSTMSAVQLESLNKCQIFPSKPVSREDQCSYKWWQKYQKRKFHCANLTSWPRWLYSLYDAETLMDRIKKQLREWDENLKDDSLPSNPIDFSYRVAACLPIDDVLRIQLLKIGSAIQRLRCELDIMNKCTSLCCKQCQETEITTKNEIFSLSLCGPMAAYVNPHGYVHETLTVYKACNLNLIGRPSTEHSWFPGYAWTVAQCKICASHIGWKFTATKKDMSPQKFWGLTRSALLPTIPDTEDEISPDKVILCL
Chain of IKZF2 (Q16531 whole entry partner): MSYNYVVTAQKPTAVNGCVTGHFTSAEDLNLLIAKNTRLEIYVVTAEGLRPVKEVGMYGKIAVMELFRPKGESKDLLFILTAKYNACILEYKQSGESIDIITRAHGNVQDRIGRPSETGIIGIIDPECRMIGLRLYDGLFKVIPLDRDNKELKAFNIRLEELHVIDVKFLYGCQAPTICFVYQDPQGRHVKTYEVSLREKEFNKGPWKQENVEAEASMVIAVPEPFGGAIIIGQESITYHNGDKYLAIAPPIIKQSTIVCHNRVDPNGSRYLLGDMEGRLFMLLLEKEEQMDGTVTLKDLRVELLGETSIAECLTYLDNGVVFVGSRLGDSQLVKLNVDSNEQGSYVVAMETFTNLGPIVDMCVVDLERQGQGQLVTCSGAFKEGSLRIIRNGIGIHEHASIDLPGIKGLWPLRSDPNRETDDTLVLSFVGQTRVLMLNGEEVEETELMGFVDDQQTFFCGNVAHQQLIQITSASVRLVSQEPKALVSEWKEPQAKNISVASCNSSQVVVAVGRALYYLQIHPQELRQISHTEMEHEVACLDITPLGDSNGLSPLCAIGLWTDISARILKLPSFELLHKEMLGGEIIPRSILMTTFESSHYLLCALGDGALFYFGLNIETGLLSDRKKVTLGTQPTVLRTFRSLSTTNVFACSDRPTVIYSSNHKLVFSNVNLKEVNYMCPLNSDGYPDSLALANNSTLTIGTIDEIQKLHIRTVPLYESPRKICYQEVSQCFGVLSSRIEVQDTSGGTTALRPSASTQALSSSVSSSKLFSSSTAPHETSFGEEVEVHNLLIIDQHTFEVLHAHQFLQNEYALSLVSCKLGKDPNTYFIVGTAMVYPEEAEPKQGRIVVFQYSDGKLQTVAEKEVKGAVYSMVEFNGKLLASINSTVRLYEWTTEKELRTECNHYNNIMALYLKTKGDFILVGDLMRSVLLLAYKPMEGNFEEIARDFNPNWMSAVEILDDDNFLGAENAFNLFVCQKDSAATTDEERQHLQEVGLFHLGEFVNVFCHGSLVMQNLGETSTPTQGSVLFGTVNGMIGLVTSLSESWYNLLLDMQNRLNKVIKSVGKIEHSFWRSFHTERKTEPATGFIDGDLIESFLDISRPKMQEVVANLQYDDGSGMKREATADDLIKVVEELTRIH

Row | SMILES | DC50 [nM] | Dmax [%]
1 | O=C1CCC(N2Cc3c(ccc4c3OCC43CCN(C[C@H]4C[C@@H]4c4ccccc4)CC3)C2=O)C(=O)N1 (relative stereo) [Compound A180, 3-(6-oxo-1′-((trans-2-phenylcyclopropyl)methyl)-6,8-dihydro-2H,7H-spiro[furo[2,3-e]isoindole-3,4′-piperidin]-7-yl)piperidine-2,6-dione] | > 500 | < 40
2 | O=C1CCC(N2Cc3c(ccc4c3OCCC43CCNCC3)C2=O)C(=O)N1 (stereo not drawn) [Compound A2, 3-(7′-oxo-2′,3′,7′,9′-tetrahydro-8′H-spiro[piperidine-4,4′-pyrano[2,3-e]isoindol]-8′-yl)piperidine-2,6-dione] |  | < 40
3 | O=C1CCC(N2Cc3c(ccc4c3OCC43CCN(Cc4ccc(Cl)cc4F)CC3)C2=O)C(=O)N1 (stereo not drawn) [Compound A4, 3-(1′-(4-chloro-2-fluorobenzyl)-6-oxo-6,8-dihydro-2H,7H-spiro[furo[2,3-e]isoindole-3,4′-piperidin]-7-yl)piperidine-2,6-dione] | > 500 | 40 to 60
4 | O=C1CCC(N2Cc3c(ccc4c3OCC43CCN(Cc4ccc(F)cc4Cl)CC3)C2=O)C(=O)N1 (stereo not drawn) [Compound A6, 3-(1′-(2-chloro-4-fluorobenzyl)-6-oxo-6,8-dihydro-2H,7H-spiro[furo[2,3-e]isoindoline-3,4′-piperidin]-7-yl)piperidine-2,6-dione] | > 500 | < 40
5 | O=C1CCC(N2Cc3c(ccc4c3OCC43CCN(CC4CCCCC4)CC3)C2=O)C(=O)N1 (stereo not drawn) [Compound A7, 3-(1′-(cyclohexylmethyl)-6-oxo-6,8-dihydro-2H,7H-spiro[furo[2,3-e]isoindoline-3,4′-piperidin]-7-yl)piperidine-2,6-dione] | > 500 | < 40
6 | O=C1CCC(N2Cc3c(ccc4c3OCCC43CCN(Cc4ccc(C(F)F)cc4)CC3)C2=O)C(=O)N1 (stereo not drawn) [Compound A9, 3-(1-(4-(difluoromethyl)benzyl)-7′-oxo-2′,3′,7′,9′-tetrahydro-8′H-spiro[piperidine-4,4′-pyrano[2,3-e]isoindol]-8′-yl)piperidine-2,6-dione] | > 500 | < 40
7 | O=C1CCC(N2Cc3c(ccc4c3OCCC43CCN(Cc4ccc(Cl)cc4F)CC3)C2=O)C(=O)N1 (stereo not drawn) [Compound A10, 3-(1-(4-chloro-2-fluorobenzyl)-7′-oxo-2′,3′,7′,9′-tetrahydro-8′H-spiro[piperidine-4,4′-pyrano[2,3-e]isoindol]-8′-yl)piperidine-2,6-dione] | > 500 | < 40
8 | O=C1CCC(N2Cc3c(ccc4c3OCCC43CCN(Cc4ccccc4)CC3)C2=O)C(=O)N1 (stereo not drawn) [Compound A13, 3-(1-benzyl-7′-oxo-2′,3′,7′,9′-tetrahydro-8′H-spiro[piperidine-4,4′-pyrano[2,3-e]isoindol]-8′-yl)piperidine-2,6-dione] | > 500 | < 40
9 | O=C1CCC(N2Cc3c(ccc4c3OCCC43CCN(CC4CCCCC4)CC3)C2=O)C(=O)N1 (stereo not drawn) [Compound A14, 3-(1-(cyclohexylmethyl)-7′-oxo-2′,3′,7′,9′-tetrahydro-8′H-spiro[piperidine-4,4′-pyrano[2,3-e]isoindol]-8′-yl)piperidine-2,6-dione] | > 500 | < 40
10 | CCc1ccc(CN2CCC3(CC2)COc2c3ccc3c2CN(C2CCC(=O)NC2=O)C3=O)cc1 (stereo not drawn) [Compound A16, 3-(1′-(4-ethylbenzyl)-6-oxo-6,8-dihydro-2H,7H-spiro[furo[2,3-e]isoindole-3,4′-piperidin]-7-yl)piperidine-2,6-dione] | > 500 | < 40
11 | O=C1CCC(N2Cc3c(ccc4c3OCC43CCN(CC4CCC(F)(F)CC4)CC3)C2=O)C(=O)N1 (stereo not drawn) [Compound A17, 3-(1′-((4,4-difluorocyclohexyl)methyl)-6-oxo-6,8-dihydro-2H,7H-spiro[furo[2,3-e]isoindole-3,4′-piperidin]-7-yl)piperidine-2,6-dione] | > 500 | 40 to 60
